Source: patent US20080213338A1, “IMPLANT STENT WITH A RETINOID FOR IMPROVED BIOCOMPATIBILITY” (priority 1997, published 2008)

System: pigmented rabbits
Experiment: Retinal plug implantation in vitrectomized rabbit eyes, histopathology (PAS stain) at 28 days
Format: in vivo
Settings: polylactic acid plug containing 10% by weight retinoid, inserted into vitreous through sclera; intravitreal injection of 500,000 human RPE cells; 28 days after insertion
Protocol: Retinal plugs were manufactured from poly(D,L)lactic acid (PLA) with an intrinsic viscosity of 0.6 DL/G. The retinoid 6-[(4,4-dimethyl thiochroman-6-yl)ethynl]nicotinic acid (AGN190299) was mixed with polymer in a three-dimensional mixer. The mixture was then extruded at 85° C. into a homogeneous rod. The retinoid was incorporated into the polymeric plug at a concentration of 10%. […] A 0.5 mm hole was drilled into the distal end of the plug to allow for suture fixation to the sclera. Placebo plugs containing no retinoid were also manufactured to the same dimensions. The average weight of the plugs was 8 mg. All plugs were sterilized by gamma irradiation at l Mrad.
The rabbit eyes were vitrectomized and the retinal plugs with or without incorporated retinoid were inserted through a sclerotomy 3 mm posterior to the corneoscleral limbus. The plugs were then fixated with the suture used to close the sclerotomy. An intravitreal injection of 500,000 human RPE cells was given to simulate traction retinal detachment. The rabbits were sacrificed at 28 days and histopathology was done.
These observed results are shown in FIG. 7 for the placebo plug and in FIG. 8 for the plug 10 including the retinoid as hereinabove described.

CC1(C)CCSc2ccc(C#Cc3ccc(C(=O)O)cn3)cc21 [AGN190299, 6-[(4,4-dimethylthiochroman-6-yl)ethynyl]nicotinic acid]
fibrous inflammation of the capsule surrounding the plug (histopathology, PAS stain): very little fibrous inflammation
